In patent US20170253607A1, “LONG-ACTING HIV PROTEASE INHIBITOR” (Shionogi & Co., Ltd., priority 2014, published 2017):

Experiments:
HIV-1 PR = HIV-1 PR (Human immunodeficiency virus type 1 group M subtype B, UniProt P04585); experiment: HIV-protease inhibitory activity assay (FRET peptide substrate); assay type: biochemical; details: Test Example 1
Procedure, shortened: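 HIV-1 PR (0.83 ng) preincubated with compounds 20 min at room temperature in 0.1 mol/L NaAc, 0.5 mol/L NaCl, 1 mmol/L EDTA, 1 mmol/L DTT, 0.05% Tween 20, pH 4.8. Cleavage of HiLyte Fluor 488/QXL 520 FRET peptide (2 μmol/L) read after 60 minutes at 485/535 nm; IC50 from four-parameter logistic fit.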

[1] = Protein binding test (equilibrium dialysis, unbound ratio fu in serum); assay type: in vitro ADME; details: rat serum, equilibrium dialysis 24 hours, 37° C., 2 μg/mL
Protocol: Assay condition: Evaluation method; Equilibrium dialysis method, Reaction time; 24 hours, Reaction temperature; 37° C., Assay concentration; 2 μg/mL A solution of the compound was added to each serum and mixed to prepare the serum samples with above concentration. The serum sample was put into one side of an equilibrium dialysis apparatus with dialysis membrane and phosphate buffered saline (PBS) was also put to another side of the apparatus. The apparatus was incubated at 37° C. for 24 hours. After incubation, the serum and PBS samples were collected and the compound concentrations in both samples were measured by LC/MS/MS. Fu was calculated by dividing the concentration in PBS by the concentration in the serum.

[2] = Evaluation of total body clearance (CLtot), intravenous administration; assay type: in vivo, Sprague-Dawley (SD); details: rat (SD), intravenous administration 0.5-10 mg/kg; CLtot = dose/AUC
Procedure, shortened: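 Plasma levels quantified by LC/MS/MS after intravenous tail-vein dosing (0.5-10 mg/kg, compound-dependent; n=2-3). AUC from pharmacokinetic analysis; total clearance calculated as dose/AUC.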

Row | SMILES | IC50 (HIV-1 PR) | rat_fu [1] | rat_CLt [2]
1 | COc1ccc(S(=O)(=O)N(CC(C)C)CC(O)C(Cc2ccc(OCc3ccccc3-c3ccc4c(c3)C(=O)C(c3ccc(F)cc3)C4=O)cc2)NC(=O)OC2COC3OCCC23)cc1 (stereo not drawn) [Compound I-841] | 2.21 nM | <0.1% | 2.38 mL/min/kg
2 | COc1ccc(S(=O)(=O)N(CC(C)C)CC(O)C(Cc2ccc(N(C)CCc3ccccc3-c3sc4c(c3C(=O)O)CC(C)(C)CC4)cc2)NC(=O)OC2COC3(C)OCCC23)cc1 (stereo not drawn) [Compound I-261] | 3.55 nM | <0.1% | 2.78 mL/min/kg
3 | COc1ccc(S(=O)(=O)N(CC(C)C)CC(O)C(Cc2ccc(N(C)CC3CCCCC3c3sc4c(c3C(=O)O)CC(C)(C)CC4)cc2)NC(=O)OC2COC3(C)OCCC23)cc1 (stereo not drawn) [Compound I-374] | 4.35 nM | <0.1% | 3.94 mL/min/kg
4 | COc1ccc(S(=O)(=O)N(CC(C)C)CC(O)C(Cc2ccc(NCc3ccc(-c4sc5c(c4C(=O)O)CC(C)(C)CC5)cc3)cc2)NC(=O)OC2COC3(C)OCCC23)cc1 (stereo not drawn) [Compound I-253] | 2.59 nM | <0.1% | 4.65 mL/min/kg
5 | COc1ccc(S(=O)(=O)N(CC(C)C)CC(O)C(Cc2ccc(OCc3ccccc3-c3oc4c(c3C(=O)O)CC(C)(C)CC4)cc2)NC(=O)OC2COC3(C)OCCC23)cc1 (stereo not drawn) [Compound I-49] | 2.5 nM | <0.1% | 2.23 mL/min/kg
6 | COc1ccc(S(=O)(=O)N(CC(C)C)C[C@@H](O)[C@H](Cc2ccc(OCc3ccccc3-c3sc4c(c3C(=O)O)CC(C)(C)CC4)cc2)NC(=O)[C@H](CC(N)=O)NC(=O)c2ccc3ccccc3n2)cc1 [Compound I-30] | 3.67 nM | <0.1% | 1.52 mL/min/kg
7 | COc1ccc(S(=O)(=O)N(CC2CCCC2)CC(O)C(Cc2ccc(OCc3cc(C(F)(F)F)ccc3-n3nc4c(c3C(=O)O)CC(C)(C)CC4)cc2)NC(=O)OC2COC3(C)OCCC23)cc1 (stereo not drawn) [Compound I-365] | 3.2 nM | <0.1% | 0.119 mL/min/kg
8 | COc1ccc(S(=O)(=O)N(CC(C)C)CC(O)C(Cc2ccc(OCc3ccccc3-c3ccc(Oc4ccc(-c5c(O)c6ccc(Cl)cc6[nH]c5=O)cc4)cc3)cc2)NC(=O)OC2COC3OCCC23)cc1 (stereo not drawn) [Compound I-847] | 3.38 nM | <0.1% | 6 mL/min/kg
9 | CC(C)CN(CC(O)C(Cc1ccc(OCc2ccccc2-c2sc3c(c2C(=O)O)CC(C)(C)CC3)cc1)NC(=O)OC1COC2(C)OCCC12)S(=O)(=O)c1ccc2nc(N)sc2c1 (stereo not drawn) [Compound I-51] | 2.65 nM | <0.1% | 1.47 mL/min/kg
10 | COc1ccc(S(=O)(=O)N(CC(C)C)CC(O)C(Cc2ccc(N(C)Cc3cc(C(F)(F)F)ccc3-n3nc4c(c3C(=O)O)CC(C)(C)CC4)cc2)NC(=O)OC2COC3(C)OCCC23)cc1 (stereo not drawn) [Compound I-379] | 4.42 nM | <0.1% | 0.173 mL/min/kg
11 | COc1ccc(S(=O)(=O)N(CC(C)C)C[C@@H](O)[C@H](Cc2ccc(NC3CN(c4ccccc4-c4sc5c(c4C(=O)O)CC(C)(C)CC5)C3)cc2)NC(=O)O[C@H]2CO[C@@]3(C)OCC[C@@H]23)cc1 [Compound I-228] | 3.98 nM | <0.1% | 0.144 mL/min/kg
12 | CC(C)CN(C[C@@H](O)[C@H](Cc1ccc(CCc2sc3c(c2C(=O)O)CC(C)(C)CC3)cc1)NC(=O)O[C@H]1CO[C@@]2(C)OCC[C@@H]12)S(=O)(=O)c1ccc2nc(N)sc2c1 [Compound I-15] | 2.27 nM | <0.1% | 4.86 mL/min/kg
13 | COc1ccc(S(=O)(=O)N(CC(C)C)CC(O)C(Cc2ccc(OCc3ncc(F)cc3-c3sc4c(c3C(=O)O)CC(C)(C)CC4)cc2)NC(=O)OC2COC3(C)OCCC23)cc1 (stereo not drawn) [Compound I-182] | 1.44 nM | <0.1% | 3.84 mL/min/kg
14 | COc1ccc(S(=O)(=O)N(CC(C)C)CC(O)C(Cc2ccc(CCc3sc4c(c3C(=O)O)CC(C)(C)CC4(C)C)cc2)NC(=O)OC2COC3(C)OCCC23)cc1 (stereo not drawn) [Compound I-105] | 2.42 nM | <0.1% | 2.29 mL/min/kg
